The text below walks through data of ChEMBL document CHEMBL1151595, “Palladium-catalyzed synthesis of C3-substituted 3-deoxymorphines” (Bioorg Med Chem Lett, 1994).

Type in all cases: tissue-based
Test [1] deals with Kappa-type opioid receptor (Cavia porcellus, UniProt P41144). Nature of the test: Binding to kappa opioid receptor by using [3H]U-69593 as radioligand in guinea pig cerebellum.
The target of test [2] is Mu-type opioid receptor (Cavia porcellus, UniProt P97266). Nature of the test: Binding to mu opioid receptor by using [3H]DAMGO as radioligand in guinea pig brain minus cerebellum.
The target in test [3] is Mu-type opioid receptor (Cavia porcellus) (UniProt P97266). Briefly: Binding to mu opioid receptor by using [3H]DAMGO as radioligand in guinea pig brain minus cerebellum at 10 uM.

The IC50 is the point on the concentration scale where inhibition reaches its midpoint. One may read the inhibition as the relative decrease from the control value, in per cent.

Mu-type opioid receptor (Cavia porcellus), sequence (P97266 whole entry): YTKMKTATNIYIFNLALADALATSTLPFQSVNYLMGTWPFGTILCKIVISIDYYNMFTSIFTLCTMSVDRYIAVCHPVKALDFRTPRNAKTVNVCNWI
Mu-type opioid receptor, sequence (P97266 whole entry): as above
Kappa-type opioid receptor, sequence (P41144 whole entry): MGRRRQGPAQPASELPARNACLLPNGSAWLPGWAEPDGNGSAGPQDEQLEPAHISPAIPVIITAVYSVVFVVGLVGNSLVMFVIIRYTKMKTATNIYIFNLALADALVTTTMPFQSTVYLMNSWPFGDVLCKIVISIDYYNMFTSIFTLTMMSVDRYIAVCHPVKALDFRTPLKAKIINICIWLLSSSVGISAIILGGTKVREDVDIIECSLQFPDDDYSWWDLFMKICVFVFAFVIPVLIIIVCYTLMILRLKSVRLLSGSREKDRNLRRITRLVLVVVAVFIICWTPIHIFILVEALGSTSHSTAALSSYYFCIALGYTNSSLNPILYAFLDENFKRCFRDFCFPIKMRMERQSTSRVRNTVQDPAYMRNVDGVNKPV

For the molecule `CC(=O)c1ccc2c3c1O[C@H]1[C@@H](O)C=C[C@H]4[C@@H](C2)N(C)CC[C@@]341`, the figures for the IC50 in test [1] and in test [2] were 5.1 µM and 0.64 µM, respectively.
For the molecule `CN1CC[C@]23c4c5ccc(-c6ccoc6)c4O[C@H]2[C@@H](O)C=C[C@H]3[C@H]1C5`, the IC50 in test [1] was 0.91 µM; in test [2] it was 0.2 µM.
The molecule `CN1CC[C@]23c4c5ccc(-c6cc7ccccc7s6)c4O[C@H]2[C@@H](O)C=C[C@H]3[C@H]1C5` returned an IC50 in test [1] of 126 µM. This molecule gave an inhibition in test [3] of 41%.
For the molecule `CN1CC[C@]23c4c5cccc4O[C@H]2[C@@H](O)C=C[C@H]3[C@H]1C5`, the concentration for half-maximal inhibition (IC50) was 11 µM in test [1] and 0.53 µM in test [2].
On to `Cc1ccc2c3c1O[C@H]1[C@@H](O)C=C[C@H]4[C@@H](C2)N(C)CC[C@@]341`, for which the figures for the 50% inhibitory concentration (IC50) in test [1] and in test [2] were 36 µM and 4.5 µM, respectively.
`CN1CC[C@]23c4c5ccc(-c6cccs6)c4O[C@H]2[C@@H](O)C=C[C@H]3[C@H]1C5` returned a 50% inhibitory concentration (IC50) in test [1] of 25 µM. This molecule also returned an inhibition in test [3] of 49%.
As to `CN1CC[C@]23c4c5ccc(-c6ccco6)c4O[C@H]2[C@@H](O)C=C[C@H]3[C@H]1C5`, the IC50 in test [1] was found to be 9.5 µM; in test [2] it was 2.6 µM.
Take `CN1CC[C@]23c4c5ccc(-c6ccccc6)c4O[C@H]2[C@@H](O)C=C[C@H]3[C@H]1C5`: in test [1], the IC50 came to 76 µM. The molecule further gave an inhibition in test [3] of 43%.
Take `CN1CC[C@]23c4c5ccc(OS(=O)(=O)C(F)(F)F)c4O[C@H]2[C@@H](O)C=C[C@H]3[C@H]1C5`: the IC50 is 111 µM in test [1] and 6.4 µM in test [2].
For the molecule `CN1CC[C@]23c4c5ccc(-c6ccsc6)c4O[C@H]2[C@@H](O)C=C[C@H]3[C@H]1C5`, the IC50 in test [1] was determined as 15 µM; in test [2], 3.3 µM.
